≈ marks a conversion by molar mass, not a printed value.
Key:
Leishmania amazonensis [1] = experiment: Antileishmanial activity against Leishmania amazonensis amastigotes infected in mouse macrophages assessed as inhibition of parasite growth incubated for 72 hrs by giemsa staining based analysis; format: functional, organism-based; settings: Macrophage
Leishmania amazonensis [2] = experiment: Antileishmanial activity against Leishmania amazonensis promastigotes infected in mouse macrophages assessed as inhibition of parasite growth incubated for 72 hrs by giemsa staining based analysis; format: functional, organism-based; settings: Macrophage
[3] = Selectivity index, ratio of CC50 for cytotoxicity against mouse macrophage to IC50 for antileishmanial activity against Leishmania amazonensis amastigotes infected in mouse macrophages assessed as inhibition of parasite growth; format: toxicity, cell-based; settings: read-out: Ratio CC50/IC50
MCF7 [4] = experiment: Antiproliferative activity against human MCF7 cells assessed as cell growth inhibition incubated for 72 hrs by MTT assay; format: functional
K562 = experiment: Anticancer activity against human K562 cells assessed as cell growth inhibition incubated for 72 hrs by CellTiter96 aqueous Non-Radioactive Cell Proliferation Assay; format: functional
Z-138 = experiment: Anticancer activity against human Z138 cells assessed as cell growth inhibition incubated for 72 hrs by CellTiter96 aqueous Non-Radioactive Cell Proliferation Assay; format: functional
HCT-116 = experiment: Anticancer activity against human HCT-116 cells assessed as cell growth inhibition incubated for 72 hrs by MTT assay; format: functional
LN-229 = experiment: Anticancer activity against human LN-229 cells assessed as cell growth inhibition by MTS assay; format: functional
NCI-H460 = experiment: Anticancer activity against human NCI-H460 cells assessed as cell growth inhibition incubated for 72 hrs by MTT assay; format: functional
[5] = Anticancer activity against human DND41 cells assessed as cell growth inhibition incubated for 72 hrs by CellTiter96 aqueous Non-Radioactive Cell Proliferation Assay; format: functional
HL-60 [6] = experiment: Anticancer activity against human HL-60 cells assessed as cell growth inhibition incubated for 72 hrs by CellTiter96 aqueous Non-Radioactive Cell Proliferation Assay; format: functional
Coxsackievirus = experiment: Antiviral activity against Coxsackievirus B4 infected in human HEp-2 cells assessed as reduction in virus-induced cytopathic effect incubated for 3 to 10 days by MTS assay; format: functional, organism-based; settings: B4, HEp-2
Zika virus = experiment: Antiviral activity against Zika virus infected in African green monkey Vero cells assessed as reduction in virus-induced cytopathic effect incubated for 3 to 10 days by MTS assay; format: functional, organism-based
[7] = Cytotoxicity against African green monkey Vero cells assessed as reduction in cell viability incubated for 3 to 10 days by MTS assay; format: toxicity, cell-based; settings: chlorocebus sabaeus, time 3-10 day
CAPAN-1 = experiment: Anticancer activity against human CAPAN-1 cells assessed as cell growth inhibition by MTS assay; format: functional
[8] = Cytotoxicity against human HEp-2 cells assessed as reduction in cell viability incubated for 3 to 10 days by MTS assay; format: toxicity, cell-based; settings: time 3-10 day
Huh-7 = experiment: Antiproliferative activity against human Huh-7 cells assessed as reduction in cell proliferation incubated for 24 hrs by MTT assay; format: functional, cell-based; settings: Huh-7, 24 h
HepG2 [9] = experiment: Antiproliferative activity against human HepG2 cells assessed as reduction in cell proliferation incubated for 24 hrs by MTT assay; format: functional, cell-based; settings: HepG2, 24 h
SMMC-7721 = experiment: Antiproliferative activity against human SMMC-7721 cells assessed as reduction in cell proliferation incubated for 24 hrs by MTT assay; format: functional, cell-based; settings: SMMC-7721, 24 h
HepG2 [10] = experiment: Cytotoxicity against human HepG2 cells assessed as cell viability incubated for 24 hrs by MTT assay relative to control; format: functional
[11] = system: Mycobacterium tuberculosis; experiment: Antitubercular activity against Mycobacterium tuberculosis H37Rv assessed as inhibition of visible bacterial growth incubated for 7 days by broth microdilution method; format: functional; settings: 168 h, time 7 day
[12] = Selectivity index, ratio of IC50 for cytotoxicity against African green monkey Vero cells to IC50 for antiplasmodial activity against D-sorbitol synchronized chloroquine-resistant Plasmodium falciparum W2; format: toxicity, cell-based; settings: read-out: Ratio IC50
A549 [13] = experiment: Cytotoxicity against human A549 cells incubated for 24 hrs by MTT assay; format: functional, cell-based; settings: A549, 24 h
Aspergillus fumigatus = experiment: Antifungal activity against Aspergillus fumigatus incubated for 48 to 72 hrs by broth microdilution method; format: functional; settings: time 48-72 hrs
Aspergillus niger = experiment: Antifungal activity against Aspergillus niger incubated for 48 to 72 hrs by broth microdilution method; format: functional; settings: time 48-72 hrs
Candida albicans = experiment: Antifungal activity against Candida albicans incubated for 48 to 72 hrs by broth microdilution method; format: functional; settings: time 48-72 hrs
[14] = target: Cholinesterases; ACHE & BCHE (Homo sapiens) (UniProt P06276+P22303); experiment: Selectivity ratio of IC50 for inhibition of recombinant human AchE to IC50 for inhibition of human BchE; format: protein assay
Cholinesterases; ACHE & BCHE (Homo sapiens), sequence (P06276 whole entry, looked up): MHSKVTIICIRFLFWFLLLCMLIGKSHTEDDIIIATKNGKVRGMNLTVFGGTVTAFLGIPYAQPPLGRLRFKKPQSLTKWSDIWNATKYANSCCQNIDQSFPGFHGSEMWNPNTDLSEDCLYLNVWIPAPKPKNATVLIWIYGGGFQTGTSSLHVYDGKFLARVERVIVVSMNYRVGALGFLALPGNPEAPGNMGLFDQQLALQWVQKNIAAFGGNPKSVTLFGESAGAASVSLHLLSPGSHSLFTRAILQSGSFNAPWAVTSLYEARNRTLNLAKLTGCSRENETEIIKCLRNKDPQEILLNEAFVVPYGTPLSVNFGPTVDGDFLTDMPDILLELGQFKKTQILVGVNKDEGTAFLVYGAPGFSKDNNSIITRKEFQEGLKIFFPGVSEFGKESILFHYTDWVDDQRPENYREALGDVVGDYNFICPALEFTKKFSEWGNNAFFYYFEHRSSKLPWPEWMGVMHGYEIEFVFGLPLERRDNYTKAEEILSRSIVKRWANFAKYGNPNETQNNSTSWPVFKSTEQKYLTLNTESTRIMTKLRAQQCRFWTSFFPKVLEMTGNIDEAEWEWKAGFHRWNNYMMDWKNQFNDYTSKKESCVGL
Cholinesterases; ACHE & BCHE (Homo sapiens), sequence (P22303 whole entry, looked up): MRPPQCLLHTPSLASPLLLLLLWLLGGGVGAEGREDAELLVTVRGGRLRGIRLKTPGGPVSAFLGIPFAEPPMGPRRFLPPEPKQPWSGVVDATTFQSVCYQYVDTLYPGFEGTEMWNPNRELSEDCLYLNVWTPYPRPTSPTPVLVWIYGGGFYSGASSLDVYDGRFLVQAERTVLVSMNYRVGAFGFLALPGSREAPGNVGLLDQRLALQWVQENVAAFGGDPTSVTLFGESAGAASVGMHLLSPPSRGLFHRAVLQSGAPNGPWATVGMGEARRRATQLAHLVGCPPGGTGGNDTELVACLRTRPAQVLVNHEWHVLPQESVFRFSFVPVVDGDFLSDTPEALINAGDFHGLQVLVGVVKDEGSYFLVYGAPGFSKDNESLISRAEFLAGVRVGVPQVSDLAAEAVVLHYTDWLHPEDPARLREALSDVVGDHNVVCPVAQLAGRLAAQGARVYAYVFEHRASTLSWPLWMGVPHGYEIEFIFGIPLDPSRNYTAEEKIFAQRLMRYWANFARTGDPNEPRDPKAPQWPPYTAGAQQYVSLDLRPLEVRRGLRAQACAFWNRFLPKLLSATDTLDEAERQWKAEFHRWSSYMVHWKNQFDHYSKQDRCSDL

Mus musculus [15] = experiment: Anti-inflammatory activity against carrageenan-induced paw edema mouse model assessed as reduction in edema measured after 2 hrs relative to control; format: functional; parameters: scale not given: the % may be the effect or the level left
Mus musculus [16] = experiment: Anti-inflammatory activity against carrageenan-induced paw edema mouse model assessed as reduction in edema measured after 3 hrs relative to control; format: functional; parameters: scale not given: the % may be the effect or the level left
Mus musculus [17] = experiment: Anti-inflammatory activity against carrageenan-induced paw edema mouse model assessed as reduction in edema measured after 1 hrs relative to control; format: functional; parameters: scale not given: the % may be the effect or the level left
Plasmodium falciparum = experiment: Antiplasmodial activity against chloroquine sensitive Plasmodium falciparum NF54 incubated for 48 hrs by lactate dehydrogenase assay; format: functional, organism-based; settings: NF54, Erythrocyte
[18] = Cytotoxicity against human L02 cells incubated for 24 hrs by MTT assay; format: toxicity, cell-based
HeLa [19] = experiment: Antiproliferative activity against human HeLa cells incubated for 24 hrs by MTT assay; format: functional, cell-based
Staphylococcus aureus = experiment: Antibacterial activity against Staphylococcus aureus ATCC 8739 incubated for 24 hrs by broth microdilution method; format: functional
Escherichia coli = experiment: Antibacterial activity against Escherichia coli ATCC 29213 incubated for 24 hrs by broth microdilution method; format: functional
SGC-7901 = experiment: Antiproliferative activity against human SGC-7901 cells incubated for 24 hrs by MTT assay; format: functional, cell-based; settings: SGC-7901, 24 h
A549 [20] = experiment: Antiproliferative activity against human A549 cells assessed as reduction in cell viability incubated for 24 hrs by MTT assay; format: functional, cell-based; settings: A549, 24 h
MDA-MB-231 = experiment: Anticancer activity against human MDA-MB-231 cells; format: functional, cell-based
HL-60 [21] = experiment: Anticancer activity against human HL-60 cells incubated for 48 hrs by MTT assay; format: functional, cell-based; settings: HL-60, 48 h
HepG2 [22] = experiment: Anticancer activity against human HepG2 cells incubated for 48 hrs by MTT assay; format: functional, cell-based; settings: HepG2, 48 h
MCF7 [23] = experiment: Anticancer activity against human MCF7 cells incubated for 48 hrs by MTT assay; format: functional, cell-based; settings: MCF7, 48 h
HeLa [24] = experiment: Anticancer activity against human HeLa cells incubated for 48 hrs by MTT assay; format: functional, cell-based

Which IC50 (Leishmania amazonensis [1]) does the source give for `CCCCCCCCCCn1cc(CNCCNc2ccnc3cc(Cl)ccc23)nn1` here?
Its IC50 is 1.1 µM.

And the IC50 (Leishmania amazonensis [2])?
Its IC50 is 5.7 µM.

And the selectivity ratio [3]?
The selectivity ratio was 16.

With `C/C(=C\C(=O)NCCCCNc1cc(C(F)(F)F)nc2c(C(F)(F)F)cccc12)C(=O)NCCCCNc1cc(C(F)(F)F)nc2c(C(F)(F)F)cccc12` as the compound, how does the GI50 (MCF7 [4]) read?
Its GI50 is 0.7 µM.

What about the GI50 (K562) of the same compound?
The GI50 was 8.6 µM.

What about the GI50 (Z-138) of the same compound?
Its GI50 is 6.9 µM.

What about the GI50 (HCT-116) of the same compound?
The GI50 was 2.4 µM.

And the GI50 (LN-229)?
The GI50 was 2.4 µM.

What about the GI50 (NCI-H460) of the same compound?
The GI50 was 3 µM.

What about the GI50 [5] of the same compound?
Its GI50 is 7.9 µM.

What about the GI50 (HL-60 [6]) of the same compound?
Its GI50 is 2.6 µM.

What about the EC50 (Coxsackievirus) of the same compound?
Its EC50 is 0.85 µM.

What about the EC50 (Zika virus) of the same compound?
The EC50 was 0.85 µM.

And the CC50 [7]?
Its CC50 is 10 µM.

And the GI50 (CAPAN-1)?
Its GI50 is 2.3 µM.

What about the CC50 [8] of the same compound?
The CC50 was 6.7 µM.

Which results are given for `O=C(N/N=C/c1cc(O)ccc1O)c1ccc(Nc2ccnc3ccccc23)cc1`?
IC50 (Huh-7): 18.6 µM; IC50 (HepG2 [9]): 23.7 µM; IC50 (SMMC-7721): > 50 µM

For `CC(CNc1ccnc2cc(Cl)ccc12)NC(=O)Nc1nc2ccc(C(F)(F)F)cc2s1` (configuration not stated), which Activity (HepG2 [10]) is on record?
Its Activity is 100%.

And the MIC [11]?
The MIC was 0.968 µM (≈ 0.465 µg/mL).

For `CCN(CC)c1ccc2c(c1)C(=O)N(CCC(=O)NCCNc1ccnc3cc(Cl)ccc13)C2=O`, which selectivity ratio [12] is on record?
Its selectivity ratio is over 2000.

For `Cc1cccc2c(Nc3cccc4ncccc34)cc(Cl)nc12`, which IC50 (A549 [13]) is on record?
The IC50 was 29.4 µM.

Which MIC (Aspergillus fumigatus) does the source give for `NCCCNc1nc(NCCCN)nc(NC(=S)NNc2ccnc3cc(Cl)ccc23)n1` here?
The MIC was 8 µg/mL (≈ 16.8 µM).

And the MIC (Aspergillus niger)?
Its MIC is 8 µg/mL (≈ 16.8 µM).

And the MIC (Candida albicans)?
Its MIC is 8 µg/mL (≈ 16.8 µM).

Which Ratio IC50 [14] does the source give for `CC(CCNCCC12CC3CC(CC(C3)C1)C2)Nc1ccnc2cc(Cl)ccc12` (configuration not stated) here?
Its Ratio IC50 is 10.

With `O=C(CN1CCN(c2ccccc2)CC1)N1CCN(c2ccnc3cc(Cl)ccc23)CC1` as the compound, how does the Activity (Mus musculus [15]) read?
The Activity was 50%.

What about the Activity (Mus musculus [16]) of the same compound?
Its Activity is 64%.

And the Activity (Mus musculus [17])?
The Activity was 34%.

Which IC50 (Plasmodium falciparum) does the source give for `O=C(/C=C/c1ccc(Cl)cc1)c1ccc(S(=O)(=O)NCCCNc2ccnc3cc(Cl)ccc23)cc1` here?
The IC50 was 0.1 µM.

For `CCC[n+]1cc(C(=O)OCC)c(Nc2ccc(OCc3ccccc3)cc2)c2cc3c(cc21)OCO3`, which IC50 at 24 h [18] is on record?
Its IC50 at 24 h is 54.5 µM.

What about the IC50 (HeLa [19]) of the same compound?
Its IC50 is 7.62 µM.

What about the MIC (Staphylococcus aureus) of the same compound?
Its MIC is 3.12 µM.

What about the MIC (Escherichia coli) of the same compound?
The MIC was 3.12 µM.

And the IC50 (SGC-7901)?
The IC50 was 17.6 µM.

And the IC50 (A549 [20])?
The IC50 was 5.18 µM.

Which IC50 (MDA-MB-231) does the source give for `C[C@H]1[C@H](C)CC[C@]2(C(=O)OCCOCCNc3ccnc4cc(Cl)ccc34)CC[C@]3(C)C(=CC[C@@H]4[C@@]5(C)CC[C@H](O)C(C)(C)[C@@H]5CC[C@]43C)[C@H]12` here?
Its IC50 is 85.6 µg/mL (≈ 121 µM).

With `S=C(NNc1ccnc2cc(Cl)ccc12)Nc1nc(Nc2ccc(Cl)cc2)nc(Nc2ccc(Cl)cc2)n1` as the compound, how does the IC50 (HL-60 [21]) read?
The IC50 was 26.3 µM.

And the IC50 (HepG2 [22])?
Its IC50 is 45.3 µM.

And the IC50 (MCF7 [23])?
The IC50 was 32.3 µM.

And the IC50 (HeLa [24])?
Its IC50 is 32.4 µM.

From ChEMBL document CHEMBL6177931, “Exploring diverse frontiers: Advancements of bioactive 4-aminoquinoline-based molecular hybrids in targeted therapeutics and beyond” (Eur J Med Chem, 2024)
